Test results as given in paper PMC11831592, “Repurposing Linezolid in Conjunction with Histone Deacetylase Inhibitor Access in the Realm of Glioblastoma Therapies” (Journal of Medicinal Chemistry, 2025).

Key:
[1] = tested on: TMZ-resistant GBM cell lines A172R and PT#3R; test: MTT cytotoxicity assay, TMZ-resistant GBM lines (statement in words); assay type: cell-based; settings: 0 to 80 μM, 72 h
Experimental: (§1) We utilized linezolid as the structural foundation to confirm the cytotoxicity of linezolid-conjugated functional domains against glioblastoma (GBM). We combined it with the binding structures of anti-histone deacetylases (HDACs) (denoted as compounds 1–5 and 11–14), antitubulin (compound 6), anticyclooxygenase (COX) (compound 7), and anti-heat shock protein 90 (Hsp90) (compounds 8–10). These constructs were then administered to TMZ-resistant GBM cell lines A172R and PT#3R at concentrations ranging from 0 to 80 μM over 72 h. The cytotoxic effects of these compounds were assessed using the MTT assay (Table 1 and Supporting Information IV). […] Given the remarkable cytotoxicity of compound 1 on both A172-R and PT#3-R TMZ-resistant cells, this study subsequently focused on compound 1 for further in-depth investigation and mechanistic exploration. To validate that the cytotoxic effect of compound 1 on GBM is not attributed to linezolid alone, we separately treated the TMZ-resistant GBM cell line PT#3-R with compound 1 and linezolid. […] This confirms that the cytotoxicity of compound 1 against GBM is primarily attributable to the inhibitory structure of linezolid-conjugated HDAC (Figure 2A). Furthermore, we compared the cytotoxic effects of compound 1 on various wild-type brain tumor cell lines, including U87MG, PT#3, LN229 GBM cells, and CT-2A mouse astrocyte cell line as well as TMZ-resistant variants cell lines, including U87MG-R, PT#3-R, CT-2A-R, and T98G (MGMT-positive). […] Additionally, we further confirmed the efficacy of compound 1 in GBM treatment.
MTT assay was employed to evaluate the cytotoxicity of the synthesized compound against resistant GBM cells. The MTT (3-(4,5-dimethylthiazol-2-yl)-2,5-diphenyltetrazolium bromide, catalog no. AM0818-0005) powder was purchased from BIONOVAS (Ontario, Canada). The MTT was prepared at 10 mg/mL stock with ultrapure water and then stored at −20 °C. […] Finally, 100 μL of the mixture was transferred to measure the OD 595 nm absorbance.

[2] = tested on: LN229 GBM cells; test: CCK8 cell proliferation assay, LN229; assay type: cell-based; settings: Homo sapiens, LN-229; LN229, CCK8, 72 h
Experimental: (§2) Cell viability and drug cytotoxicity were determined by a CCK-8 kit (Cell Counting Kit-8, CK04-13, MD, USA) (CCK8, C0005, Target Molecule Corp., MA, USA) reagent. Cells were seeded 2 × 10^3 per well in the 96-well plate for 24 h, followed by treating at different concentrations of compounds for 72 h. Before the experiment, CCK8 was 10-fold diluted with the culture medium and then incubated with cells for 30 min. Finally, the OD was 450 nm absorbance and calculated for cell viability.

[3] = tested on: PT#3R cells; test: Cell cycle analysis by flow cytometry; assay type: cell-based, human; settings: 72 h
Experimental: To measure the cell cycle, cells were seeded 5 × 10^4 per well in a 12-well plate for 24 h, followed by treatment of the different concentrations of compounds for 72 h. Next, the cells were fixed with 70% ethanol and stored at −20 °C for at least 24 h. After washing, the cells were stained with 30 μg/mL propidium iodide (PI, Cat# P4170, Sigma-Aldrich) and contented 10 ng/mL RNaseA (Cat# R6148, Sigma-Aldrich) for 30 min, followed by detection using flow cytometry Guava easyCyte Flow Cytometers and then analyzed by the Guava easyCyte System 3.3 (Cytec Industries Incorporated, NJ, USA).

[4] = tested on: DNA HR repair in U87MG cells; test: Homologous recombination repair assay; assay type: cell-based, human; settings: increasing drug concentrations
Experimental: For the DNA, HR repair assay continued to use our previous study.[30] U87MG cells were cotransfected at a 2:1 ratio using the […] reporter and DsRed-Monomer plasmids. Cells were harvested 2 days after transfection and subjected to flow cytometry analysis by a Guava EasyCyte System. Only DsRed-positive cells were analyzed for HR and NHEJ efficiencies to circumvent possible differences in transfection efficiencies. Data were analyzed to reveal the percentage of GFP-positive cells relative to those of DsRed-positive cells. Data were set to 1% of the background level of GFP-positive cells in every internal control.

[5] = tested on: CT-2A mouse astrocyte cell line; test: CCK8 cell proliferation assay, CT-2A; assay type: cell-based; settings: CCK8, 72 h
Experimental: as §2

[6] = tested on: PT#3-R TMZ-resistant GBM cell line; test: cells; assay type: cell-based; settings: MTT
Experimental: The cytotoxic effects of these compounds were assessed using the MTT assay (Table 1 and Supporting Information IV).
MTT assay was employed to evaluate the cytotoxicity of the synthesized compound against resistant GBM cells. The MTT (3-(4,5-dimethylthiazol-2-yl)-2,5-diphenyltetrazolium bromide, catalog no. AM0818-0005) powder was purchased from BIONOVAS (Ontario, Canada). The MTT was prepared at 10 mg/mL stock with ultrapure water and then stored at −20 °C. […] Before the experiment, the MTT stock was 10-fold diluted with the culture medium and then incubated with cells for 30 min. After the incubation, the MTT medium was discarded and added 300 μL of dimethyl sulfoxide (DMSO, cat. no. D2650, Sigma-Aldrich, MO, USA) to dissolve the cells.

[7] = target: T1, HDAC2 (Homo sapiens, UniProt Q92769); test: HDAC enzyme inhibition assay, HDAC2; assay type: biochemical; settings: 10-dose, 3-fold serial dilution starting at 10 μM
T1 construct: purchased Reaction Biology Corporation, Malvern, PA (contract assay service)
T1 sequence (Q92769 whole entry): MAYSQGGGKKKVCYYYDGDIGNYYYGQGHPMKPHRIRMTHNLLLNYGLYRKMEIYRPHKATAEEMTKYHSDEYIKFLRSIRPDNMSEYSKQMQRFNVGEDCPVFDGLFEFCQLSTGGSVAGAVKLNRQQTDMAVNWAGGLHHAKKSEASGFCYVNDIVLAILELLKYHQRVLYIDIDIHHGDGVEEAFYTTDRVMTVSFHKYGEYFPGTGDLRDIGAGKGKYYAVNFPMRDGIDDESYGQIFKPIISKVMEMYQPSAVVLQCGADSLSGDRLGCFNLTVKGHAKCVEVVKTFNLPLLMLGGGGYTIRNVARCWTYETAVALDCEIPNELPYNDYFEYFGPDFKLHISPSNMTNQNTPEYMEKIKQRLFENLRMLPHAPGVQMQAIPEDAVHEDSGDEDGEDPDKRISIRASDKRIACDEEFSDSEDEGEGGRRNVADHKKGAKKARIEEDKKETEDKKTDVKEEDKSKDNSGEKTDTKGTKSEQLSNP
Experimental: (§3) Enzyme inhibition assays were performed by the Reaction Biology Corporation, Malvern, PA (http://www.reactionbiology.com).

[8] = target: T2, HDAC1 (Homo sapiens, UniProt Q13547); test: HDAC enzyme inhibition assay, HDAC1; assay type: biochemical; settings: 10-dose, 3-fold serial dilution starting at 10 μM
T2 construct: purchased Reaction Biology Corporation, Malvern, PA (contract assay service)
T2 sequence (Q13547 whole entry): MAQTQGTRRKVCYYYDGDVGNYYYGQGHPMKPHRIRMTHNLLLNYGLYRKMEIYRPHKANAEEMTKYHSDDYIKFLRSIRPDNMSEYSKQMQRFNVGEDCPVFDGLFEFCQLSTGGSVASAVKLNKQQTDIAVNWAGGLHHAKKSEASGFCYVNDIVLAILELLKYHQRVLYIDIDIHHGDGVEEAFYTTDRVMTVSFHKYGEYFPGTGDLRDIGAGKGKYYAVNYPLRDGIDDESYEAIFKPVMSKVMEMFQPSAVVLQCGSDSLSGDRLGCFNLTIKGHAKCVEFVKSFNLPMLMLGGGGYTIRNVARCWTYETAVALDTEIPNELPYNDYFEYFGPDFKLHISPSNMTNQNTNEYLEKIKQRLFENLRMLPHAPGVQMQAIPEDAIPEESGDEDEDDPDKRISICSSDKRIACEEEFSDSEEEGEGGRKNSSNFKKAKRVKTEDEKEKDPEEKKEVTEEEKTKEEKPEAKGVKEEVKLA
Experimental: as §3

[9] = tested on: A172-R TMZ-resistant GBM cell line; test: MTT cytotoxicity assay, A172-R; assay type: cell-based; settings: Homo sapiens, 72 h
Experimental: as §1
MTT assay was employed to evaluate the cytotoxicity of the synthesized compound against resistant GBM cells. The MTT (3-(4,5-dimethylthiazol-2-yl)-2,5-diphenyltetrazolium bromide, catalog no. AM0818-0005) powder was purchased from BIONOVAS (Ontario, Canada). The MTT was prepared at 10 mg/mL stock with ultrapure water and then stored at −20 °C. All cells were seeded 2.5 × 10^4 per well in the 24-well plate for 24 h, followed by treating at different concentrations of compounds for 72 h. Before the experiment, the MTT stock was 10-fold diluted with the culture medium and then incubated with cells for 30 min. After the incubation, the MTT medium was discarded and added 300 μL of dimethyl sulfoxide (DMSO, cat. no. D2650, Sigma-Aldrich, MO, USA) to dissolve the cells. Finally, 100 μL of the mixture was transferred to measure the OD 595 nm absorbance.

## O=C(/C=C/c1ccc(CNC[C@H]2CN(c3ccc(N4CCOCC4)c(F)c3)C(=O)O2)cc1)NO [compound 1, (S,E)-3-(4-((((3-(3-Fluoro-4-morpholinophenyl)-2-oxooxazolidin-5-yl)methyl)ami-no)methyl)phenyl)-N-hydroxyacrylamide]
[1]
  cytotoxicity in TMZ-resistant GBM: exhibited the capacity to induce cytotoxicity
[2]
  IC50: 15.7 ± 0.93 µM
[3]
  cell cycle distribution: G2/M phase arrest and increases in the sub-G1 cell population
[4]
  DNA HR repair capability: substantial decrease in DNA HR repair capability
[5]
  IC50: 5.88 ± 0.63 µM
[6]; Homo sapiens, 72 h
  IC50: 12.1 ± 1.48 µM
[6]; 20 μM and above
  cytotoxic effect on resistant GBM cells: significant cytotoxic effect
[7]
  IC50: 2.81 µM
[8]
  IC50: 1.09 µM
[9]
  IC50: 17.4 ± 1.21 µM
